{"source": "patent US12427134B2", "about": "“Methods of reducing the risk of cardiovascular events in a subject with atrial fibrillation and/or atrial flutter” (priority 2019, dated 2025)", "system": "hypertriglyceridemic patients with cardiovascular disease or at high risk for cardiovascular disease", "conditions": "human, in vivo", "source_text": "Compliance Control: Unless clear contraindications arise, patients were strongly encouraged to adhere to their treatment regimen with the study drug for the duration of the trial. Any interruptions of therapy were, if possible, brief (e.g., <4 weeks) and only for clinically indicated reasons, such as adverse events. Discontinuations were discouraged as much as possible. Any discontinuations were based on compelling clinical reasons. For every patient, an assessment of compliance to the study drug treatment regimen was obtained at each scheduled visit. Study medication was dispensed in amounts exceeding the amount required for the study. Patients were instructed to return all unused study medication at the next visit. Compliance to the study drug regimen was evaluated at each visit by counting unused capsules. Discrepancies were evaluated and discussed with each patient to assess compliance. […] At the end of the study, the final study medication compliance was determined by unused capsule count. […]\nOccurrence of an outcome event according to the judgment of the investigator was not considered a valid reason for study drug discontinuation. Patients whose treatment with study medication was discontinued early, and had not withdrawn consent, stayed in the study and were monitored until the end of the study. […]"}
{"smiles": "CC/C=C\\C/C=C\\C/C=C\\C/C=C\\C/C=C\\CCCC(=O)OCC", "note": "[AMR101, eicosapentaenoic acid ethyl ester]", "values": [{"measurement": "Early study drug discontinuation: adverse event", "value": 9.2, "unit": "%"}]}
